Results published in BigSolDB 2.1.

NC(=O)c1ccncc1
in 1,4-dioxane
Details	solubility (mole fraction)
298.55 K	0.014
301.45 K	0.015
303.15 K	0.016
305.05 K	0.017
306.45 K	0.018
308.25 K	0.019
309.15 K	0.02
309.35 K	0.02
312.15 K	0.023
314.05 K	0.024
315.35 K	0.026
319.45 K	0.028
325.55 K	0.036

Nc1ccc(C(=O)O)cc1
in 1,4-dioxane
Details	solubility (mole fraction)
298.25 K	0.068
301.25 K	0.073
304.65 K	0.08
311.55 K	0.094
317.75 K	0.108
320.65 K	0.116
324.85 K	0.127
326.35 K	0.131

NC(=O)N1c2ccccc2C=Cc2ccccc21
Details	solubility (mole fraction)
in 1,4-dioxane, 310.35 K	0.022
in 1,4-dioxane, 319.95 K	0.032
in 1,4-dioxane, 323.55 K	0.036
in 1,4-dioxane, 327.95 K	0.043
in 1,4-dioxane, 329.75 K	0.047
in 1,4-dioxane, 332.45 K	0.052
in 1,4-dioxane, 332.95 K	0.054
in cyclopentyl methyl ether, 308.15 K	0.002
in cyclopentyl methyl ether, 315.15 K	0.002
in cyclopentyl methyl ether, 323.75 K	0.003
in cyclopentyl methyl ether, 331.45 K	0.004
in cyclopentyl methyl ether, 332.45 K	0.004
in toluene, 301.85 K	0.001
in toluene, 313.95 K	0.002
in toluene, 319.65 K	0.003
in toluene, 325.35 K	0.004
in toluene, 328.55 K	0.004
in toluene, 332.15 K	0.005
in toluene, 335.35 K	0.006

c1ccc2nc3ccccc3nc2c1
Details	solubility (mole fraction)
in 1,4-dioxane, 302.55 K	0.031
in 1,4-dioxane, 305.55 K	0.033
in 1,4-dioxane, 306.05 K	0.034
in 1,4-dioxane, 308.85 K	0.038
in 1,4-dioxane, 312.45 K	0.04
in 1,4-dioxane, 313.55 K	0.043
in 1,4-dioxane, 318.75 K	0.049
in cyclopentyl methyl ether, 301.15 K	0.022
in cyclopentyl methyl ether, 305.75 K	0.026
in cyclopentyl methyl ether, 310.05 K	0.029
in cyclopentyl methyl ether, 314.05 K	0.033
in cyclopentyl methyl ether, 318.25 K	0.039
in cyclopentyl methyl ether, 326.85 K	0.047
in toluene, 282.95 K	0.015
in toluene, 289.85 K	0.02
in toluene, 294.25 K	0.022
in toluene, 297.95 K	0.025
in toluene, 301.35 K	0.027
in toluene, 312.55 K	0.039
in toluene, 318.25 K	0.046
in toluene, 322.35 K	0.053
in toluene, 328.75 K	0.062

O=C(O)c1ccc([N+](=O)[O-])cc1
in 1,4-dioxane
Details	solubility (mole fraction)
296.95 K	0.036
303.25 K	0.048
306.25 K	0.053
310.85 K	0.062
314.65 K	0.07
319.35 K	0.08

O=C(Oc1ccccc1C(=O)O)c1ccccc1O
Details	solubility (mole fraction)
in 1,4-dioxane, 324.45 K	0.263
in 1,4-dioxane, 326.55 K	0.268
in 1,4-dioxane, 330.35 K	0.278
in 1,4-dioxane, 332.55 K	0.284
in 1,4-dioxane, 334.95 K	0.291
in 1,4-dioxane, 337.35 K	0.298
in cyclopentyl methyl ether, 319.75 K	0.148
in cyclopentyl methyl ether, 323.25 K	0.156
in cyclopentyl methyl ether, 323.95 K	0.158
in cyclopentyl methyl ether, 325.65 K	0.16
in cyclopentyl methyl ether, 327.75 K	0.166
in cyclopentyl methyl ether, 329.95 K	0.17
in cyclopentyl methyl ether, 333.95 K	0.176
in toluene, 327.75 K	0.016
in toluene, 329.25 K	0.017
in toluene, 333.45 K	0.019
in toluene, 335.25 K	0.021
in toluene, 335.95 K	0.022

Nc1ccccc1C(=O)O
Details	solubility (mole fraction)
in 1,4-dioxane, 295.65 K	0.251
in 1,4-dioxane, 304.55 K	0.275
in 1,4-dioxane, 308.35 K	0.287
in 1,4-dioxane, 320.85 K	0.334
in 1,4-dioxane, 324.85 K	0.338
in cyclopentyl methyl ether, 297.85 K	0.137
in cyclopentyl methyl ether, 308.45 K	0.155
in cyclopentyl methyl ether, 315.55 K	0.171
in cyclopentyl methyl ether, 325.25 K	0.194
in cyclopentyl methyl ether, 334.25 K	0.223
in toluene, 295.55 K	0.007
in toluene, 306.95 K	0.012
in toluene, 308.85 K	0.013
in toluene, 312.65 K	0.015
in toluene, 316.75 K	0.018
in toluene, 322.25 K	0.024
in toluene, 325.95 K	0.026
in toluene, 326.05 K	0.026

O=C(O)c1cccc(O)c1
in 1,4-dioxane
Details	solubility (mole fraction)
305.35 K	0.188
308.85 K	0.194
310.85 K	0.197
312.95 K	0.204
313.05 K	0.203
316.75 K	0.211
318.75 K	0.214
321.45 K	0.219
325.35 K	0.227

O=C(O)c1ccccc1O
Details	solubility (mole fraction)
in 1,4-dioxane, 316.85 K	0.323
in 1,4-dioxane, 321.55 K	0.337
in 1,4-dioxane, 325.55 K	0.35
in 1,4-dioxane, 330.85 K	0.365
in cyclopentyl methyl ether, 316.75 K	0.252
in cyclopentyl methyl ether, 322.85 K	0.264
in cyclopentyl methyl ether, 330.55 K	0.28
in cyclopentyl methyl ether, 333.05 K	0.289
in cyclopentyl methyl ether, 337.25 K	0.299
in toluene, 305.65 K	0.007
in toluene, 314.15 K	0.011
in toluene, 323.45 K	0.017
in toluene, 326.85 K	0.019
in toluene, 329.05 K	0.021
in toluene, 332.25 K	0.025
in toluene, 333.35 K	0.027

CC(=O)Oc1ccccc1C(=O)O
Details	solubility (mole fraction)
in 1,4-dioxane, 309.35 K	0.164
in 1,4-dioxane, 312.05 K	0.171
in 1,4-dioxane, 315.55 K	0.183
in 1,4-dioxane, 317.65 K	0.191
in 1,4-dioxane, 325.75 K	0.218
in 1,4-dioxane, 330.05 K	0.236
in 1,4-dioxane, 331.45 K	0.246
in 1,4-dioxane, 332.55 K	0.258
in cyclopentyl methyl ether, 313.05 K	0.055
in cyclopentyl methyl ether, 314.25 K	0.057
in cyclopentyl methyl ether, 316.35 K	0.059
in cyclopentyl methyl ether, 319.05 K	0.064
in cyclopentyl methyl ether, 320.55 K	0.068
in cyclopentyl methyl ether, 322.85 K	0.074
in cyclopentyl methyl ether, 325.75 K	0.079
in toluene, 321.25 K	0.008
in toluene, 326.65 K	0.01
in toluene, 327.15 K	0.011
in toluene, 327.85 K	0.011
in toluene, 330.15 K	0.014

NC(=O)c1cccnc1
in 1,4-dioxane
Details	solubility (mole fraction)
307.25 K	0.025
309.95 K	0.027
311.55 K	0.029
313.35 K	0.031
315.45 K	0.033

O=C(O)c1ccc(O)cc1
in 1,4-dioxane
Details	solubility (mole fraction)
299.65 K	0.08
304.15 K	0.088
311.15 K	0.102
315.75 K	0.111
319.95 K	0.119
324.55 K	0.131

CC(=O)Nc1ccc(O)cc1
in 1,4-dioxane
Details	solubility (mole fraction)
334.55 K	0.037
335.35 K	0.039
336.65 K	0.042
336.95 K	0.042
337.25 K	0.043
337.85 K	0.045
